# Experimental data: PubChem BioAssay (NCI)
#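 GI50 is the concentration that inhibits growth by half. TGI marks complete inhibition of growth.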
# Columns and labels:
# Test in all cases: inhibition of tumour cell growth, NCI panel, 384-well format
# OVCAR-3 ovarian = test system: OVCAR-3 ovarian
# SK-OV-3 ovarian = test system: SK-OV-3 ovarian
# BT-549 breast = test system: BT-549 breast
# SR leukemia = test system: SR leukemia
# IGROV1 ovarian = test system: IGROV1 ovarian
# UACC-62 melanoma = test system: UACC-62 melanoma
# HOP-62 NSCLC = test system: HOP-62 NSCLC
# OVCAR-5 ovarian = test system: OVCAR-5 ovarian
# HS 578T breast = test system: HS 578T breast
# RXF 393 renal = test system: RXF 393 renal
# SF-268 CNS = test system: SF-268 CNS
# NCI-H23 lung = test system: NCI-H23 lung
# NCI-H226 lung = test system: NCI-H226 lung
# NCI-H322M lung = test system: NCI-H322M lung
# NCI-H460 NSCLC = test system: NCI-H460 NSCLC
# UACC-257 melanoma = test system: UACC-257 melanoma
# NCI/ADR-RES ovarian = test system: NCI/ADR-RES ovarian
# UO-31 renal = test system: UO-31 renal
# SW-620 colon = test system: SW-620 colon
# HT29 colon = test system: HT29 colon
# OVCAR-4 ovarian = test system: OVCAR-4 ovarian
# LOX IMVI melanoma = test system: LOX IMVI melanoma
# MOLT-4 leukemia = test system: MOLT-4 leukemia
# RPMI-8226 leukemia = test system: RPMI-8226 leukemia
# SK-MEL-5 melanoma = test system: SK-MEL-5 melanoma
# K-562 leukemia = test system: K-562 leukemia
# CCRF-CEM leukemia = test system: CCRF-CEM leukemia
# SF-539 CNS = test system: SF-539 CNS
# MDA-MB-231 breast = test system: MDA-MB-231 breast
# MALME-3M melanoma = test system: MALME-3M melanoma
# PC-3 prostate = test system: PC-3 prostate
# MDA-MB-435 melanoma = test system: MDA-MB-435 melanoma
# MDA-MB-468 breast = test system: MDA-MB-468 breast
# TK-10 renal = test system: TK-10 renal
# OVCAR-8 ovarian = test system: OVCAR-8 ovarian
# HCC-2998 colon = test system: HCC-2998 colon
# EKVX NSCLC = test system: EKVX NSCLC
# SNB-19 CNS = test system: SNB-19 CNS
# HCT-15 colon = test system: HCT-15 colon
# SNB-75 CNS = test system: SNB-75 CNS
# HL-60(TB) leukemia = test system: HL-60(TB) leukemia
# HOP-92 NSCLC = test system: HOP-92 NSCLC
# DU-145 prostate = test system: DU-145 prostate
# KM12 colon = test system: KM12 colon
# SN12C renal = test system: SN12C renal
# CAKI-1 renal = test system: CAKI-1 renal
# COLO 205 colon = test system: COLO 205 colon
# SK-MEL-28 melanoma = test system: SK-MEL-28 melanoma
# MCF7 breast = test system: MCF7 breast
# A498 renal = test system: A498 renal
# 786-0 renal = test system: 786-0 renal
# SF-295 CNS = test system: SF-295 CNS
# A549 NSCLC = test system: A549 NSCLC
# M14 melanoma = test system: M14 melanoma
# ACHN renal = test system: ACHN renal
# NCI-H522 lung = test system: NCI-H522 lung
# T-47D breast = test system: T-47D breast
compound,measurement,setting,value
CN1CCN(C(=O)COc2ccc(C34CC5CC(CC(C5)C3)C4)cc2)CC1,GI50,OVCAR-3 ovarian,7.07 µM
same,TGI,OVCAR-3 ovarian,19.7 µM
same,GI50,SK-OV-3 ovarian,7.12 µM
same,TGI,SK-OV-3 ovarian,19.8 µM
same,GI50,BT-549 breast,3.48 µM
same,TGI,BT-549 breast,16 µM
same,GI50,SR leukemia,1.68 µM
same,TGI,SR leukemia,3.08 µM
same,GI50,IGROV1 ovarian,12.7 µM
same,TGI,IGROV1 ovarian,25.3 µM
same,GI50,UACC-62 melanoma,1.81 µM
same,TGI,UACC-62 melanoma,3.32 µM
same,GI50,HOP-62 NSCLC,4.84 µM
same,TGI,HOP-62 NSCLC,16.5 µM
same,GI50,OVCAR-5 ovarian,5.11 µM
same,TGI,OVCAR-5 ovarian,16.6 µM
same,GI50,HS 578T breast,3.17 µM
same,TGI,HS 578T breast,10.6 µM
same,GI50,RXF 393 renal,1.85 µM
same,TGI,RXF 393 renal,4.12 µM
same,GI50,SF-268 CNS,4.74 µM
same,TGI,SF-268 CNS,16.2 µM
same,GI50,NCI-H23 lung,4.5 µM
same,TGI,NCI-H23 lung,15.9 µM
same,GI50,NCI-H226 lung,6.3 µM
same,TGI,NCI-H226 lung,19.3 µM
same,GI50,NCI-H322M lung,3.81 µM
same,TGI,NCI-H322M lung,13.5 µM
same,GI50,NCI-H460 NSCLC,2.48 µM
same,TGI,NCI-H460 NSCLC,5.79 µM
same,GI50,UACC-257 melanoma,2.19 µM
same,TGI,UACC-257 melanoma,4.32 µM
same,GI50,NCI/ADR-RES ovarian,7.51 µM
same,TGI,NCI/ADR-RES ovarian,20.1 µM
same,GI50,UO-31 renal,11.3 µM
same,TGI,UO-31 renal,23.9 µM
same,GI50,SW-620 colon,1.78 µM
same,TGI,SW-620 colon,3.31 µM
same,GI50,HT29 colon,1.72 µM
same,TGI,HT29 colon,3.31 µM
same,GI50,OVCAR-4 ovarian,8.56 µM
same,TGI,OVCAR-4 ovarian,20.7 µM
same,GI50,LOX IMVI melanoma,2.31 µM
same,TGI,LOX IMVI melanoma,5.31 µM
same,GI50,MOLT-4 leukemia,1.79 µM
same,TGI,MOLT-4 leukemia,4.27 µM
same,GI50,RPMI-8226 leukemia,1.7 µM
same,TGI,RPMI-8226 leukemia,3.22 µM
same,GI50,SK-MEL-5 melanoma,1.85 µM
same,TGI,SK-MEL-5 melanoma,3.37 µM
same,GI50,K-562 leukemia,1.64 µM
same,TGI,K-562 leukemia,3.17 µM
same,GI50,CCRF-CEM leukemia,2.03 µM
same,TGI,CCRF-CEM leukemia,4.43 µM
same,GI50,SF-539 CNS,3.98 µM
same,TGI,SF-539 CNS,13.8 µM
same,GI50,MDA-MB-231 breast,6.09 µM
same,TGI,MDA-MB-231 breast,18.5 µM
same,GI50,MALME-3M melanoma,1.7 µM
same,TGI,MALME-3M melanoma,3.19 µM
same,GI50,PC-3 prostate,8.05 µM
same,TGI,PC-3 prostate,20.6 µM
same,GI50,MDA-MB-435 melanoma,3.94 µM
same,TGI,MDA-MB-435 melanoma,13.4 µM
same,GI50,MDA-MB-468 breast,1.93 µM
same,TGI,MDA-MB-468 breast,3.7 µM
same,GI50,TK-10 renal,9.41 µM
same,TGI,TK-10 renal,21.3 µM
same,GI50,OVCAR-8 ovarian,10.3 µM
same,TGI,OVCAR-8 ovarian,22.1 µM
same,GI50,HCC-2998 colon,1.56 µM
same,TGI,HCC-2998 colon,3.11 µM
same,GI50,EKVX NSCLC,11.4 µM
same,TGI,EKVX NSCLC,23.6 µM
same,GI50,SNB-19 CNS,10.5 µM
same,TGI,SNB-19 CNS,22.3 µM
same,GI50,HCT-15 colon,1.84 µM
same,TGI,HCT-15 colon,3.37 µM
same,GI50,SNB-75 CNS,11.9 µM
same,TGI,SNB-75 CNS,24.3 µM
same,GI50,HL-60(TB) leukemia,1.8 µM
same,TGI,HL-60(TB) leukemia,3.21 µM
same,GI50,HOP-92 NSCLC,3.58 µM
same,TGI,HOP-92 NSCLC,15.7 µM
same,GI50,DU-145 prostate,12.1 µM
same,TGI,DU-145 prostate,24.6 µM
same,GI50,KM12 colon,2.18 µM
same,TGI,KM12 colon,4.77 µM
same,GI50,SN12C renal,11.8 µM
same,TGI,SN12C renal,24.2 µM
same,GI50,CAKI-1 renal,2.22 µM
same,TGI,CAKI-1 renal,4.56 µM
same,GI50,COLO 205 colon,1.79 µM
same,TGI,COLO 205 colon,3.21 µM
same,GI50,SK-MEL-28 melanoma,1.74 µM
same,TGI,SK-MEL-28 melanoma,3.19 µM
same,GI50,MCF7 breast,2.08 µM
same,TGI,MCF7 breast,6.06 µM
same,GI50,A498 renal,1.62 µM
same,TGI,A498 renal,3.12 µM
same,GI50,786-0 renal,1.74 µM
same,TGI,786-0 renal,3.24 µM
same,GI50,SF-295 CNS,2.85 µM
same,TGI,SF-295 CNS,8.18 µM
same,GI50,A549 NSCLC,5.49 µM
same,TGI,A549 NSCLC,17.8 µM
same,GI50,M14 melanoma,1.87 µM
same,TGI,M14 melanoma,3.41 µM
same,GI50,ACHN renal,7.11 µM
same,TGI,ACHN renal,19.6 µM
same,GI50,NCI-H522 lung,8.25 µM
same,TGI,NCI-H522 lung,20.5 µM
same,GI50,T-47D breast,2.66 µM
same,TGI,T-47D breast,10.6 µM
